How the values were obtained:
Format in all cases: in vivo
[1] = system: pigweed (Amaranthus retroflexus); test: Test A pre-/postemergence plant response
In short: (§1)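 Greenhouse pots of loam/sand received directed preemergence soil sprays or postemergence sprays (plants 2–10 cm, 1–2 leaf stage), compounds formulated in non-phytotoxic solvent with surfactant. Injury was rated visually versus untreated controls after about ten days on a 0 (no effect) to 100 (complete control) scale.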

[2] = system: wheat (Triticum aestivum); test: Test A pre-/postemergence plant response
In short: as §1

[3] = system: large crabgrass (Digitaria sanguinalis); test: Test A pre-/postemergence plant response
In short: as §1

corn (Zea mays) = test: Test A pre-/postemergence plant response
In short: as §1

[4] = system: velvetleaf (Abutilon theophrasti); test: Test A pre-/postemergence plant response
In short: as §1

[5] = system: barnyardgrass (Echinochloa crus-galli); test: Test A pre-/postemergence plant response
In short: as §1

[6] = system: giant foxtail (Setaria faberii); test: Test A pre-/postemergence plant response
In short: as §1

[7] = system: morningglory (Ipomoea spp.); test: Test A pre-/postemergence plant response
In short: as §1

[8] = system: wheat (Triticum aestivum); test: Test B pre-/postemergence plant response
Description: (§2) Seeds of plant species selected from blackgrass (Alopecurus myosuroides), downy bromegrass (Bromus tectorum), green foxtail (Setaria viridis), Italian ryegrass (Lolium multiflorum), wheat (Triticum aestivum), wild oat (Avena fatua), deadnettle (henbit deadnettle, Lamium amplexicaule), galium (catchweed bedstraw, Galium aparine), bermudagrass (Cynodon dactylon), Surinam grass (Brachiaria decumbens), cocklebur (Xanthium strumarium), corn (Zea mays), large crabgrass (Digitaria sanguinalis), woolly cupgrass (Eriochloa villosa), giant foxtail (Setaria faberii), goosegrass (Eleusine indica), johnsongrass (Sorghum halepense), kochia (Kochia scoparia), lambsquarters (Chenopodium album), morningglory (Ipomoea coccinea), nightshade (eastern black nightshade, Solanum ptycanthum), yellow nutsedge (Cyperus esculentus), pigweed (Amaranthus retroflexus), ragweed (common ragweed, Ambrosia elatior), Russian thistle (Salsola kali), soybean (Glycine max), sunflower (common oilseed sunflower, Helianthus annuus) and velvetleaf (Abutilon theophrasti) were planted into a blend of loam soil and sand and treated preemergence with test compounds formulated in a non-phytotoxic solvent mixture which included a surfactant.
(§3) At the same time, plants selected from these crop and weed species and also winter barley (Hordeum vulgare), canarygrass (Phalaris minor), chickweed (Stellaria media) and windgrass (Apera spica-venti) were planted in pots containing Redi-Earth® planting medium (Scotts Company, 14111 Scottslawn Road, Marysville, Ohio 43041) comprising spaghnum peat moss, vermiculite, wetting agent and starter nutrients and treated with postemergence applications of some of the test chemicals formulated in the same manner. Plants ranged in height from 2 to 18 cm (1- to 4-leaf stage) for postemergence treatments.
(§4) Treated plants and controls were maintained in a greenhouse for 13 to 15 days, after which time all treated plants were visually evaluated and compared to controls. Plant response ratings, summarized in Table B, are based on a scale of 0 to 100 where 0 is no effect and 100 is complete control. A dash (-) response means no test result.

[9] = system: morningglory (Ipomoea coccinea); test: Test B pre-/postemergence plant response
Description: as §2, §3, §4

[10] = system: cocklebur (Xanthium strumarium); test: Test B pre-/postemergence plant response
Description: as §2, §3, §4

soybean (Glycine max) = test: Test B pre-/postemergence plant response
Description: as §2, §3, §4

[11] = Postemergence, 125 g ai/ha, visual injury, 0 to 100 scale (0 no effect, 100 complete control), approx. ten days
[12] = Postemergence, 500 g ai/ha, 0 to 100 scale, 0 = no effect, 100 = complete control, approx. ten days
[13] = Preemergence, 125 g ai/ha, 0 to 100 scale, 0 = no effect, 100 = complete control
[14] = Preemergence, 500 g ai/ha, visual injury, 0 to 100 scale (0 no effect, 100 complete control), approx. ten days
[15] = 250 g ai/ha, Preemergence, 0 to 100 scale
[16] = Postemergence, 31 g ai/ha, scale 0 to 100 (0 no effect, 100 complete control)
[17] = Postemergence, 62 g ai/ha, scale 0 (no effect) to 100 (complete control), 13 to 15 days
[18] = Postemergence, 125 g ai/ha, visual rating after 13 to 15 days, scale 0 (no effect) to 100 (complete control)
[19] = Postemergence, 250 g ai/ha, scale 0 to 100
[20] = Preemergence, 31 g ai/ha, scale 0 to 100 (0 no effect, 100 complete control)
[21] = Preemergence, 62 g ai/ha, scale 0 to 100, 0 no effect, 100 complete control
[22] = Preemergence, 125 g ai/ha, 0 to 100 scale

SMILES: O=C1CCCC([O-])=C1C(=O)c1cnc(-c2ccccc2)n(-c2ccccc2)c1=O.[K+] [Compound 14]
- Pigweed plant response rating [1, 11]: 80
- Plant response rating, Pigweed [1, 12]: 100
- Plant response rating, Pigweed [1, 13]: 100
- Plant response rating, Pigweed [1, 14]: 100
- Wheat plant response rating [2, 11]: 0
- Plant response rating, Wheat [2, 12]: 0
- Plant response rating, Wheat [2, 13]: 0
- Plant response rating, Wheat [2, 14]: 0
- Crabgrass, Large plant response rating [3, 11]: 30
- Plant response rating, Crabgrass, Large [3, 12]: 90
- Plant response rating, Crabgrass, Large [3, 13]: 30
- Plant response rating, Crabgrass, Large [3, 14]: 90
- Corn plant response rating (corn (Zea mays); [11]): 0
- Plant response rating, Corn (corn (Zea mays); [12]): 20
- Plant response rating, Corn (corn (Zea mays); [13]): 0
- Plant response rating, Corn (corn (Zea mays); [14]): 0
- Velvetleaf plant response rating [4, 11]: 100
- Plant response rating, Velvetleaf [4, 12]: 100
- Plant response rating, Velvetleaf [4, 13]: 90
- Plant response rating, Velvetleaf [4, 14]: 100
- Barnyardgrass plant response rating [5, 11]: 30
- Plant response rating, Barnyardgrass [5, 12]: 80
- Plant response rating, Barnyardgrass [5, 13]: 10
- Plant response rating, Barnyardgrass [5, 14]: 70
- Foxtail, Giant plant response rating [6, 11]: 30
- Plant response rating, Foxtail, Giant [6, 12]: 90
- Plant response rating, Foxtail, Giant [6, 13]: 40
- Plant response rating, Foxtail, Giant [6, 14]: 90
- Morningglory plant response rating [7, 11]: 20
- Plant response rating, Morningglory [7, 12]: 100
- Plant response rating, Morningglory [7, 13]: 10
- Plant response rating, Morningglory [7, 14]: 60
- Plant response rating, Wheat [8, 15]: 0
- Plant response rating, Wheat [8, 16]: 0
- Plant response rating, Wheat [8, 17]: 0
- Plant response rating, Wheat [8, 18]: 0
- Wheat plant response rating [8, 19]: 20
- Plant response rating, Wheat [8, 20]: 0
- Plant response rating, Wheat [8, 21]: 0
- Wheat plant response rating [8, 22]: 0
- Plant response rating, Morningglory [9, 15]: 100
- Plant response rating, Morningglory [9, 16]: 70
- Plant response rating, Morningglory [9, 17]: 70
- Plant response rating, Morningglory [9, 18]: 80
- Morningglory plant response rating [9, 19]: 95
- Plant response rating, Morningglory [9, 20]: 100
- Plant response rating, Morningglory [9, 21]: 100
- Morningglory plant response rating [9, 22]: 100
- Plant response rating, Cocklebur [10, 15]: 95
- Plant response rating, Cocklebur [10, 16]: 80
- Plant response rating, Cocklebur [10, 17]: 90
- Plant response rating, Cocklebur [10, 18]: 90
- Cocklebur plant response rating [10, 19]: 98
- Plant response rating, Cocklebur [10, 20]: 0
- Plant response rating, Cocklebur [10, 21]: 85
- Cocklebur plant response rating [10, 22]: 85
- Plant response rating, Soybean (soybean (Glycine max); [15]): 85
- Plant response rating, Soybean (soybean (Glycine max); [16]): 80
- Plant response rating, Soybean (soybean (Glycine max); [17]): 85
- Plant response rating, Soybean (soybean (Glycine max); [18]): 90
- Soybean plant response rating (soybean (Glycine max); [19]): 90
- Plant response rating, Soybean (soybean (Glycine max); [20]): 25
- Soybean plant response rating (soybean (Glycine max); [22]): 50

SMILES: O=C1CCCC(O)=C1C(=O)c1cnc(-c2ccccc2)n(-c2ccc(F)cc2)c1=O [Compound 24]
- Pigweed plant response rating [1, 11]: 90
- Plant response rating, Pigweed [1, 12]: 100
- Plant response rating, Pigweed [1, 13]: 90
- Plant response rating, Pigweed [1, 14]: 100
- Wheat plant response rating [2, 11]: 0
- Plant response rating, Wheat [2, 12]: 30
- Plant response rating, Wheat [2, 13]: 0
- Plant response rating, Wheat [2, 14]: 20
- Crabgrass, Large plant response rating [3, 11]: 70
- Plant response rating, Crabgrass, Large [3, 12]: 90
- Plant response rating, Crabgrass, Large [3, 13]: 30
- Plant response rating, Crabgrass, Large [3, 14]: 100
- Corn plant response rating (corn (Zea mays); [11]): 0
- Plant response rating, Corn (corn (Zea mays); [12]): 30
- Plant response rating, Corn (corn (Zea mays); [13]): 0
- Plant response rating, Corn (corn (Zea mays); [14]): 0
- Velvetleaf plant response rating [4, 11]: 100
- Plant response rating, Velvetleaf [4, 12]: 100
- Plant response rating, Velvetleaf [4, 13]: 90
- Plant response rating, Velvetleaf [4, 14]: 100
- Barnyardgrass plant response rating [5, 11]: 10
- Plant response rating, Barnyardgrass [5, 12]: 70
- Plant response rating, Barnyardgrass [5, 13]: 10
- Plant response rating, Barnyardgrass [5, 14]: 90
- Foxtail, Giant plant response rating [6, 11]: 70
- Plant response rating, Foxtail, Giant [6, 12]: 90
- Plant response rating, Foxtail, Giant [6, 13]: 40
- Plant response rating, Foxtail, Giant [6, 14]: 100
- Morningglory plant response rating [7, 11]: 70
- Plant response rating, Morningglory [7, 12]: 100
- Plant response rating, Morningglory [7, 13]: 20
- Plant response rating, Morningglory [7, 14]: 80
- Plant response rating, Wheat [8, 15]: 0
- Plant response rating, Wheat [8, 16]: 5
- Plant response rating, Wheat [8, 17]: 10
- Plant response rating, Wheat [8, 18]: 30
- Wheat plant response rating [8, 19]: 50
- Plant response rating, Wheat [8, 20]: 0
- Plant response rating, Wheat [8, 21]: 0
- Wheat plant response rating [8, 22]: 0
- Plant response rating, Morningglory [9, 15]: 100
- Plant response rating, Morningglory [9, 16]: 50
- Plant response rating, Morningglory [9, 17]: 60
- Plant response rating, Morningglory [9, 18]: 60
- Morningglory plant response rating [9, 19]: 90
- Plant response rating, Morningglory [9, 20]: 100
- Plant response rating, Morningglory [9, 21]: 100
- Morningglory plant response rating [9, 22]: 100
- Plant response rating, Cocklebur [10, 15]: 95
- Plant response rating, Cocklebur [10, 16]: 90
- Plant response rating, Cocklebur [10, 17]: 98
- Plant response rating, Cocklebur [10, 18]: 98
- Cocklebur plant response rating [10, 19]: 100
- Plant response rating, Cocklebur [10, 20]: 10
- Cocklebur plant response rating [10, 22]: 95
- Plant response rating, Soybean (soybean (Glycine max); [15]): 85
- Plant response rating, Soybean (soybean (Glycine max); [16]): 85
- Plant response rating, Soybean (soybean (Glycine max); [17]): 95
- Plant response rating, Soybean (soybean (Glycine max); [18]): 95
- Soybean plant response rating (soybean (Glycine max); [19]): 100
- Plant response rating, Soybean (soybean (Glycine max); [20]): 45
- Plant response rating, Soybean (soybean (Glycine max); [21]): 60
- Soybean plant response rating (soybean (Glycine max); [22]): 80

From patent US8952024B2, “Herbicidal pyrimidone derivatives” (E I du Pont de Nemours and Company, priority 2009, dated 2015)
